Literature values as cited in patent US6699900B2, “Hydrophilic and lipophilic silibinin pro-forms” (priority 2001, dated 2004).

Conditions: Merck Index, Reference 8680

solubility in aqueous or lipophilic phases: not readily soluble
SMILES: COc1cc(C2Oc3cc([C@H]4Oc5cc(O)cc(O)c5C(=O)[C@@H]4O)ccc3OC2CO)ccc1O (stereo partly shown) [silibinin]
